From the kinase profiling compilation of Christmann-Franck et al. (2016)

Assays:
Conditions in all cases: compound 10.0 µM
BMPR1A (human) = BMPR1A (human) (UniProt P36894)
CAMK1D (human) = CAMK1D (human) (UniProt Q8IU85)
CDC2L2 (human) = CDC2L2 (human) (UniProt Q9UQ88)
CDK19 (human) = CDK19 (human) (UniProt Q9BWU1)
CDK9 (human) = CDK9 (human) (UniProt P50750)
CDKL2 (human) = CDKL2 (human) (UniProt Q92772)
DDR2 (human) = DDR2 (human) (UniProt Q16832)
EPHA5 (human) = EPHA5 (human) (UniProt P54756)
EPHA7 (human) = EPHA7 (human) (UniProt Q15375)
LATS2 (human) = LATS2 (human) (UniProt Q9NRM7)
[1] = tested on: LRRK2 (human), Q5S007 [G2019S]
MAK (human) = MAK (human) (UniProt P20794)
MAP3K4 (human) = MAP3K4 (human) (UniProt Q9Y6R4)
MAP3K7 (human) = MAP3K7 (human) (UniProt O43318)
MAP4K1 (human) = MAP4K1 (human) (UniProt Q92918)
MAP4K3 (human) = MAP4K3 (human) (UniProt Q8IVH8)
MAPK1 (human) = MAPK1 (human) (UniProt P28482)
MAPK6 (human) = MAPK6 (human) (UniProt Q16659)
MAPKAPK2 (human) = MAPKAPK2 (human) (UniProt P49137)
MERTK (human) = MERTK (human) (UniProt Q12866)
MLTK (human) = MLTK (human) (UniProt Q9NYL2)
MUSK (human) = MUSK (human) (UniProt O15146)
PAK7 (human) = PAK7 (human) (UniProt Q9P286)
PDGFRA (human) = PDGFRA (human) (UniProt P16234)
PIK3C2B (human) = PIK3C2B (human) (UniProt O00750)
PIK3CB (human) = PIK3CB (human) (UniProt P42338)
PRKAA1 (human) = PRKAA1 (human) (UniProt Q13131)
PRKACB (human) = PRKACB (human) (UniProt P22694)
PRKCE (human) = PRKCE (human) (UniProt Q02156)
RIPK4 (human) = RIPK4 (human) (UniProt P57078)
RPS6KA2 KD2 (human) = RPS6KA2 KD2 (human) (UniProt Q15349)
RPS6KA6 KD1 (human) = RPS6KA6 KD1 (human) (UniProt Q9UK32)
STK10 (human) = STK10 (human) (UniProt O94804)
STK16 (human) = STK16 (human) (UniProt O75716)
STK24 (human) = STK24 (human) (UniProt Q9Y6E0)
STK32A (human) = STK32A (human) (UniProt Q8WU08)
TESK1 (human) = TESK1 (human) (UniProt Q15569)
TXK (human) = TXK (human) (UniProt P42681)
YES1 (human) = YES1 (human) (UniProt P07947)
YSK4 (human) = YSK4 (human) (UniProt Q56UN5)
ZAP70 (human) = ZAP70 (human) (UniProt P43403)

Sequence of MAPK1 (human) (P28482 whole entry, looked up): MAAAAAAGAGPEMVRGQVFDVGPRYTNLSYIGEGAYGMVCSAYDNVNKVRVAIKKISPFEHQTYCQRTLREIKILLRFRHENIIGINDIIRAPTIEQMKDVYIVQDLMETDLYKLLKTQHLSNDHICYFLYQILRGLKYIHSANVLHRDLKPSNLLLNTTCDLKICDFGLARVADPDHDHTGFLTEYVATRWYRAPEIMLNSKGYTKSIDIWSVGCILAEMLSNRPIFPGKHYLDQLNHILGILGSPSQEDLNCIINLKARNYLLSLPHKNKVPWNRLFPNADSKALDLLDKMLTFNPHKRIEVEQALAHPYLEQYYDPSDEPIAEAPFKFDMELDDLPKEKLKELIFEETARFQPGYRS
Sequence of DDR2 (human) (Q16832 whole entry, looked up): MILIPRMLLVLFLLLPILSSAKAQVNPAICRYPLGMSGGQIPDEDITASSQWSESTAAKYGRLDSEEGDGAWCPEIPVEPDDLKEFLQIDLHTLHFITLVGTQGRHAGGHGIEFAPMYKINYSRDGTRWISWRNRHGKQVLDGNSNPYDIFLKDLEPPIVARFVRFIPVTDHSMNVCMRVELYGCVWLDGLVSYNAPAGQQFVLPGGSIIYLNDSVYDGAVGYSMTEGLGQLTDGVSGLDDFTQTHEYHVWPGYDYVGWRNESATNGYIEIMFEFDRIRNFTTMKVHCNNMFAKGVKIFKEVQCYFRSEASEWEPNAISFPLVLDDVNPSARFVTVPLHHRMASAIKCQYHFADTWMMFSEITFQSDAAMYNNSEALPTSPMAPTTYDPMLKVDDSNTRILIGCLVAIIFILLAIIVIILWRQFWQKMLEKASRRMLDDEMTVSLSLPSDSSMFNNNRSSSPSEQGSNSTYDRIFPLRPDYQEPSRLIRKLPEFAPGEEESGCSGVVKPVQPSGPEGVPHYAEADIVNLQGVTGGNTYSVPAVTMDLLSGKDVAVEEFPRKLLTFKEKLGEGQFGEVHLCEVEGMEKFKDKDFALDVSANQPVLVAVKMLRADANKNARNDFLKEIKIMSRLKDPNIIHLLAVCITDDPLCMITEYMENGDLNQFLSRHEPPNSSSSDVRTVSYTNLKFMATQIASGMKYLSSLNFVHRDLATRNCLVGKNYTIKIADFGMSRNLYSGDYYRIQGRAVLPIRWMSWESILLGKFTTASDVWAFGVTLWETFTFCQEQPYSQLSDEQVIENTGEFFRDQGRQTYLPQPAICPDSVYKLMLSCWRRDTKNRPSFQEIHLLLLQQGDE
Sequence of EPHA7 (human) (Q15375 whole entry, looked up): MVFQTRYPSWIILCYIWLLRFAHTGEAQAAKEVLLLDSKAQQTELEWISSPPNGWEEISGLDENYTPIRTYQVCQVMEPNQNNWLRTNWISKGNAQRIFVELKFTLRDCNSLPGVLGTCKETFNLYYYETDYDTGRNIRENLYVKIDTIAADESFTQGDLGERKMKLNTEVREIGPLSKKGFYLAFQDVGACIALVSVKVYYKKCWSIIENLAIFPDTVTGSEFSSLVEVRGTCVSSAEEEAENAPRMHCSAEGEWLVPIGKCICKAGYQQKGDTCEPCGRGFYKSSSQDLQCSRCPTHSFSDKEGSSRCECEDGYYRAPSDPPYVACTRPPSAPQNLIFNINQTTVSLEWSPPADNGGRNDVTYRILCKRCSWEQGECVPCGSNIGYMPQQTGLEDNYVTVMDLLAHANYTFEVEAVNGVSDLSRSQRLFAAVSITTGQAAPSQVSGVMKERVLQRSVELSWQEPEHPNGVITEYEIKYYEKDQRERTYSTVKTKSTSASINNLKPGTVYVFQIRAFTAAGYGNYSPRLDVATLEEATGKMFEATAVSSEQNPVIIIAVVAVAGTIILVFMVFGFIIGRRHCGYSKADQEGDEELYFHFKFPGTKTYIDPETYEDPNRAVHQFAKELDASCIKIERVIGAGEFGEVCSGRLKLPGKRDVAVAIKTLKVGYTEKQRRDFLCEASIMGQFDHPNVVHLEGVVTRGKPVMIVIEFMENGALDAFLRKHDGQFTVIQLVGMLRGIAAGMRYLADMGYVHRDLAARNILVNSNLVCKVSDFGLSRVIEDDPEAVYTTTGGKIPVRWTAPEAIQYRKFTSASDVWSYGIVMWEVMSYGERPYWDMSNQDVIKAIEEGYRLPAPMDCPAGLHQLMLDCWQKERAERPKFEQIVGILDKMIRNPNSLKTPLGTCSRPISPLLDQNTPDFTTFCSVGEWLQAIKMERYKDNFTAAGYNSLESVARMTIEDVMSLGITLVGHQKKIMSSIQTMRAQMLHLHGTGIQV
Sequence of CAMK1D (human) (Q8IU85 whole entry, looked up): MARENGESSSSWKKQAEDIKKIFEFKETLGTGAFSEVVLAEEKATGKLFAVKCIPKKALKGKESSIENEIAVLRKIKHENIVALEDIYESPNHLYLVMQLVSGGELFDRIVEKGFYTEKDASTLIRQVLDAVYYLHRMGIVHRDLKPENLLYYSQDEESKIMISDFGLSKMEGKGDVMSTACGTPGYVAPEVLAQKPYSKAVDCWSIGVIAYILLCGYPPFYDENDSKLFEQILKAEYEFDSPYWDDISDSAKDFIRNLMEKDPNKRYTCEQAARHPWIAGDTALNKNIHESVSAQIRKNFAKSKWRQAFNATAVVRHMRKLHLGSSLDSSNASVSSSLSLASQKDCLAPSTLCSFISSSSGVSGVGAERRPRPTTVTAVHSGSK
Sequence of MUSK (human) (O15146 whole entry, looked up): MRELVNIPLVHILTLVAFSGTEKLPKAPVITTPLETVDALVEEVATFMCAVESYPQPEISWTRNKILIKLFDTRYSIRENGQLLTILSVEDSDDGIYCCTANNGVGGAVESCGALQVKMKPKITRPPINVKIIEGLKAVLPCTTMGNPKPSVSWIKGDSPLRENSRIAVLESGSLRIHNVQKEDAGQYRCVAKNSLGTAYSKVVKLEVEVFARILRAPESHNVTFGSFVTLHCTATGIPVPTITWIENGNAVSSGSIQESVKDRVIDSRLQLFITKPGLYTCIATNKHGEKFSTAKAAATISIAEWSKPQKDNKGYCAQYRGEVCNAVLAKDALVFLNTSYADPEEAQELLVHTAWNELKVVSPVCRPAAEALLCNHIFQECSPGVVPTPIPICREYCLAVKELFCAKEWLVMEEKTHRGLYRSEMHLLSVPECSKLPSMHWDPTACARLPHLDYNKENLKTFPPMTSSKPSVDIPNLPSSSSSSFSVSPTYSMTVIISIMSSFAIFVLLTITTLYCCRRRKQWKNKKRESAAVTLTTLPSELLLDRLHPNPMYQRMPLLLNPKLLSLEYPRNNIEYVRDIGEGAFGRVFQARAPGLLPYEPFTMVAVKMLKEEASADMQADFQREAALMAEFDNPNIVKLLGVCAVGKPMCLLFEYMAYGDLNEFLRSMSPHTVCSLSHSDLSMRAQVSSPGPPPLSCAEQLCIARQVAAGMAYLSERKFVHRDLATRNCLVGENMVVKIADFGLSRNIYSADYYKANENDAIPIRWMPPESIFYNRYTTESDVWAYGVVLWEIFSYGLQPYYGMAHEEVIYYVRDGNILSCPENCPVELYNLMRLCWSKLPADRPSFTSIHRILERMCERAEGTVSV
Sequence of TXK (human) (P42681 whole entry, looked up): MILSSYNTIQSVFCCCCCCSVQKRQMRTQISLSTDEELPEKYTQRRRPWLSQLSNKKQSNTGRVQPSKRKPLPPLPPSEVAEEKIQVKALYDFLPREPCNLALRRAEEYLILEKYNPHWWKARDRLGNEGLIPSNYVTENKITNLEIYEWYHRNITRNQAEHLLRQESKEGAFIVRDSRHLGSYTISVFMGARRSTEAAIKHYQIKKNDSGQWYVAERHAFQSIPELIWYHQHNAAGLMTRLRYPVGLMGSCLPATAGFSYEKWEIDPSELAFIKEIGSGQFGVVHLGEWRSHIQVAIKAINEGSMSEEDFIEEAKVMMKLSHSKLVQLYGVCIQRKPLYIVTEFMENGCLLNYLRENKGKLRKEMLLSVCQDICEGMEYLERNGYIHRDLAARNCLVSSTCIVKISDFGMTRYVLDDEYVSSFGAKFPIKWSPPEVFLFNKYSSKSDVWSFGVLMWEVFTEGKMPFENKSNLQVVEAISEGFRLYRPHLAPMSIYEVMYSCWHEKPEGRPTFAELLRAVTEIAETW
Sequence of PRKAA1 (human) (Q13131 whole entry, looked up): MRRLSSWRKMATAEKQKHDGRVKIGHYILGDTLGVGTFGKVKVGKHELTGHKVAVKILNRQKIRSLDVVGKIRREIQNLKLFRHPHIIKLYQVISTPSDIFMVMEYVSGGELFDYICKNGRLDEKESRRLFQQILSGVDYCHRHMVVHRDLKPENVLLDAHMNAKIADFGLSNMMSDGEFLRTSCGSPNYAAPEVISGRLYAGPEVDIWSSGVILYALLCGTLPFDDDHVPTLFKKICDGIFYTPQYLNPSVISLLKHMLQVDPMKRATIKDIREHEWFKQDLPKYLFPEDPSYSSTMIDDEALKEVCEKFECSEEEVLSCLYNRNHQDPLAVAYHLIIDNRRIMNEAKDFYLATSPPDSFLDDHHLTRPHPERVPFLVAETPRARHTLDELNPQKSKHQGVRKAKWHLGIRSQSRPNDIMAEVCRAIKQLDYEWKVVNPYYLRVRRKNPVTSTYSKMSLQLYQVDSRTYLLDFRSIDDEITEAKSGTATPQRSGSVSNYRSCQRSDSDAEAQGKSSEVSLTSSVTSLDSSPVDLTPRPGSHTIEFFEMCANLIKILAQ
Sequence of STK16 (human) (O75716 whole entry, looked up): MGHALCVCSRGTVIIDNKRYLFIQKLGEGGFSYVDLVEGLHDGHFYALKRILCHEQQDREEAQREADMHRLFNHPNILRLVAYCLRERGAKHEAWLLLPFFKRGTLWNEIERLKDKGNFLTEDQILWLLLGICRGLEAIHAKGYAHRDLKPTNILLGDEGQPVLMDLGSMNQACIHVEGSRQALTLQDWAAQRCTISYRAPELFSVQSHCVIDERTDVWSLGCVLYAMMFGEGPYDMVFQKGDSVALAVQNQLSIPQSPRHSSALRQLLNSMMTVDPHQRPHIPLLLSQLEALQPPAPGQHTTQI

CNC(=O)c1cc(Oc2ccc(NC(=O)Nc3ccc(Cl)c(C(F)(F)F)c3)cc2)ccn1
per cent of control (BMPR1A (human)): 100% | per cent of control (CAMK1D (human)): 88% | per cent of control (CDC2L2 (human)): 77% | per cent of control (CDK19 (human)): 0.7% | per cent of control (CDK9 (human)): 62% | per cent of control (CDKL2 (human)): 0.05% | per cent of control (DDR2 (human)): 13% | per cent of control (EPHA5 (human)): 16% | per cent of control (EPHA7 (human)): 7.6% | per cent of control (LATS2 (human)): 100% | per cent of control [1]: 62% | per cent of control (MAK (human)): 38% | per cent of control (MAP3K4 (human)): 94% | per cent of control (MAP3K7 (human)): 2.6% | per cent of control (MAP4K1 (human)): 19% | per cent of control (MAP4K3 (human)): 48% | per cent of control (MAPK1 (human)): 100% | per cent of control (MAPK6 (human)): 94% | per cent of control (MAPKAPK2 (human)): 91% | per cent of control (MERTK (human)): 2.4% | per cent of control (MLTK (human)): 0.6% | per cent of control (MUSK (human)): 0% | per cent of control (PAK7 (human)): 100% | per cent of control (PDGFRA (human)): 0% | per cent of control (PIK3C2B (human)): 100% | per cent of control (PIK3CB (human)): 100% | per cent of control (PRKAA1 (human)): 32% | per cent of control (PRKACB (human)): 100% | per cent of control (PRKCE (human)): 100% | per cent of control (RIPK4 (human)): 100% | per cent of control (RPS6KA2 KD2 (human)): 59% | per cent of control (RPS6KA6 KD1 (human)): 100% | per cent of control (STK10 (human)): 0% | per cent of control (STK16 (human)): 94% | per cent of control (STK24 (human)): 81% | per cent of control (STK32A (human)): 100% | per cent of control (TESK1 (human)): 72% | per cent of control (TXK (human)): 98% | per cent of control (YES1 (human)): 41% | per cent of control (YSK4 (human)): 0% | per cent of control (ZAP70 (human)): 91%

CNC(=O)c1cc(Oc2ccc(NC(=O)Nc3ccc(Cl)c(C(F)(F)F)c3)cc2)cc[n+]1[O-]
per cent of control (BMPR1A (human)): 91% | per cent of control (CAMK1D (human)): 75% | per cent of control (CDC2L2 (human)): 99% | per cent of control (CDK19 (human)): 0.35% | per cent of control (CDK9 (human)): 73% | per cent of control (CDKL2 (human)): 0.1% | per cent of control (DDR2 (human)): 19% | per cent of control (EPHA5 (human)): 15% | per cent of control (EPHA7 (human)): 33% | per cent of control (LATS2 (human)): 100% | per cent of control [1]: 64% | per cent of control (MAK (human)): 35% | per cent of control (MAP3K4 (human)): 93% | per cent of control (MAP3K7 (human)): 2.9% | per cent of control (MAP4K1 (human)): 6% | per cent of control (MAP4K3 (human)): 12% | per cent of control (MAPK1 (human)): 100% | per cent of control (MAPK6 (human)): 100% | per cent of control (MAPKAPK2 (human)): 100% | per cent of control (MERTK (human)): 2% | per cent of control (MLTK (human)): 0.85% | per cent of control (MUSK (human)): 0.2% | per cent of control (PAK7 (human)): 82% | per cent of control (PDGFRA (human)): 0% | per cent of control (PIK3C2B (human)): 100% | per cent of control (PIK3CB (human)): 93% | per cent of control (PRKAA1 (human)): 36% | per cent of control (PRKACB (human)): 98% | per cent of control (PRKCE (human)): 100% | per cent of control (RIPK4 (human)): 100% | per cent of control (RPS6KA2 KD2 (human)): 42% | per cent of control (RPS6KA6 KD1 (human)): 97% | per cent of control (STK10 (human)): 0% | per cent of control (STK16 (human)): 81% | per cent of control (STK24 (human)): 14% | per cent of control (STK32A (human)): 92% | per cent of control (TESK1 (human)): 55% | per cent of control (TXK (human)): 78% | per cent of control (YES1 (human)): 68% | per cent of control (YSK4 (human)): 0.1% | per cent of control (ZAP70 (human)): 77%
